Target: T1, Mitochondrial peptide methionine sulfoxide reductase (Bos taurus, UniProt P54149)
T1 sequence (P54149 whole entry): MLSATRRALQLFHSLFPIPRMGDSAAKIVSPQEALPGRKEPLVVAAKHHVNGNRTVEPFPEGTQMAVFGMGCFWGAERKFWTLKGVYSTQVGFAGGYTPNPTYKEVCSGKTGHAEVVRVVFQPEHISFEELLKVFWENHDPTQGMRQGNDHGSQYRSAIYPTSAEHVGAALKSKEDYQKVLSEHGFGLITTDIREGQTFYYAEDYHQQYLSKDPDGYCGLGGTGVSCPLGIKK

Point of comparison: `O=C(O)Cc1sc(N=NC=CCc2ccccc2)nc1O` [2-[4-oxo-2-[(2E)-2-[(E)-3-phenylprop-2-enylidene]hydrazinyl]-1,3-thiazol-5-yl]acetic acid], IC50 97.5 µM. Against it:
- O=[N+]([O-])c1cnc(Nc2ccc(Cl)cn2)c([N+](=O)[O-])c1 — higher, > 155 µM
- COC(=O)COc1ccc2oc(=O)cc(-c3cc4cccc(OC)c4o3)c2c1 [MLS001167553] — higher, > 155 µM
- COc1ccc(/C=N/N2C(=O)C3C4C=CC(C4)C3C2=O)cc1[N+](=O)[O-] (stereo not drawn) [SMR000283338] — higher, > 155 µM
- CC(=O)c1cccc(Oc2cc(NN3CCCCC3)c([N+](=O)[O-])cc2[N+](=O)[O-])c1 [1-[3-[2,4-dinitro-5-(1-piperidinylamino)phenoxy]phenyl]ethanone] — higher, > 155 µM
- CCOc1ccc(N(C)S(=O)(=O)c2cc(-c3cc(C)no3)ccc2CC)cc1 [N-(4-ethoxyphenyl)-2-ethyl-N-methyl-5-(3-methyl-1,2-oxazol-5-yl)benzenesulfonamide] — higher, > 155 µM
- COc1ccc2nc(C)cc(N=NCc3ccc(F)cc3)c2c1 [N-[(4-fluorophenyl)methylideneamino]-6-methoxy-2-methyl-4-quinolinamine] — 7.6-fold lower, 12.8 µM
- CCOC(=O)C1CCN(C(=O)c2c(C)oc3c2C(=O)c2ccccc2C3=O)CC1 — higher, > 155 µM
- Cc1cccc(Nc2oc3cc(=O)ccc-3cc2C(N)=O)c1 [(2Z)-7-hydroxy-2-[(3-methylphenyl)imino]-2H-chromene-3-carboxamide] — higher, > 155 µM
- c1ccc(-n2nnnc2-n2nnc3ccccc32)cc1 [1-(1-phenyl-1,2,3,4-tetrazol-5-yl)benzotriazole] — higher, > 155 µM
- COc1ccc(Nc2ccc(C(F)(F)F)cc2[N+](=O)[O-])cn1 [SMR000688981] — higher, > 155 µM
- CCOC(=O)C(=CC(C#N)C(=O)OCC)C(=N)N1CCN(c2ccc(OC)cc2)CC1 (stereo not drawn) — within 1.5-fold, 139 µM
- Cc1nn2c(=O)cc(CSc3ccccc3NC(=O)c3ccccc3)nc2s1 [N-[2-[(2-methyl-5-oxo-[1,3,4]thiadiazolo[3,2-a]pyrimidin-7-yl)methylsulfanyl]phenyl]benzamide] — higher, > 155 µM
- N#Cc1c(-n2cccc2CN=O)sc2c1CCCC2 [SMR000009830] — higher, > 155 µM
- CCOc1cc(S(=O)(=O)N(CC)CC)c(OCC)cc1-n1cnnn1 [2,5-diethoxy-N,N-diethyl-4-(1,2,3,4-tetrazol-1-yl)benzenesulfonamide] — higher, > 155 µM
- COc1cccc(Nc2nc3ccccc3n3nnnc23)c1 [N-(3-methoxyphenyl)-[1,2,3,4]tetrazolo[1,5-a]quinoxalin-4-amine] — higher, > 155 µM
- CC1=CC(=C(C#N)C#N)C=C(C)N1CCN1CCNCC1 [2-[2,6-dimethyl-1-(2-piperazin-1-ylethyl)pyridin-4-ylidene]propanedinitrile] — higher, > 155 µM
- O=Cc1cn(-c2ccccc2)nc1-c1ccc(F)cc1 [3-(4-fluorophenyl)-1-phenyl-1H-pyrazole-4-carbaldehyde] — higher, > 155 µM
- COc1ccc(/C=N/NC(=O)c2cc3cc(OC)c(OC)cc3[nH]2)cc1 — higher, > 155 µM
- Cc1nonc1C1CCCN1Cc1c[nH]nc1-c1ccc(-c2ccccc2)cc1 (stereo not drawn) [SMR000316348] — higher, > 155 µM
- COc1cc(C2C(C(=O)c3sc(C)nc3C)C(=O)C(=O)N2CCN(C)C)cc(OC)c1OC (stereo not drawn) [1-[2-(dimethylamino)ethyl]-3-[(2,4-dimethyl-5-thiazolyl)-oxomethyl]-4-hydroxy-2-(3,4,5-trimethoxyphenyl)-2H-pyrrol-5-one] — higher, > 155 µM
- CCc1noc(C)c1C(=O)Nc1nc(-c2cc(C)ccc2C)c(C)s1 [MLS000324834] — higher, > 155 µM
- CCOC(=O)c1c(NC(=O)COC(=O)/C=C/c2ccco2)sc2c1CC(C)(C)NC2(C)C [2-[[2-[(E)-3-(2-furanyl)-1-oxoprop-2-enoxy]-1-oxoethyl]amino]-5,5,7,7-tetramethyl-4,6-dihydrothieno[2,3-c]pyridine-3-carboxylic acid ethyl ester] — higher, > 155 µM
- COc1cccc(Nc2nc3cc(OC)ccc3cc2C#N)c1 [7-methoxy-2-(3-methoxyanilino)-3-quinolinecarbonitrile] — higher, > 155 µM
- CCN(CC)c1ccc(/C=N/NC(=O)CNC(=O)/C=C/c2ccco2)cc1 [MLS000912185] — higher, > 155 µM
- CC(=O)N1N=C(c2ccncc2)OC1(Cc1ccccc1)Cc1ccccc1 — higher, > 155 µM
- COC(=O)/C(=C1/Oc2ccc(C)cc2S1)C(F)(F)F [methyl (2E)-3,3,3-trifluoro-2-(5-methyl-1,3-benzoxathiol-2-ylidene)propanoate] — higher, > 155 µM
- CCCCCc1c(-c2cccc(OC)c2)ncn1CCc1ccccc1OC [4-(3-methoxyphenyl)-1-[2-(2-methoxyphenyl)ethyl]-5-pentyl-imidazole;2,2,2-tris(fluoranyl)ethanoic acid] — higher, > 155 µM
- COc1ccccc1-c1cc(C(F)(F)F)nc(N2CCOCC2)n1 — higher, > 155 µM
- CN(c1ccccc1)S(=O)(=O)c1ccc2[nH]c(O)nc2c1 [N-methyl-2-oxidanylidene-N-phenyl-1,3-dihydrobenzimidazole-5-sulfonamide] — higher, > 155 µM
- CC(=N)C(C#N)C(=O)CSc1nn(-c2ccc(Cl)cc2)c(=S)s1 (stereo not drawn) — higher, > 155 µM
- CCOC(=O)C(C#N)C=Nc1ccccc1OC (stereo not drawn) [MLS000568396] — higher, > 155 µM
- COc1cccc2cc(-c3cc(=O)oc4ccc(O)cc34)oc12 [SMR000543646] — higher, > 155 µM
- FC(F)(F)c1ccc(/N=C/c2sc(N3CCOCC3)nc2-c2ccccc2)cc1 [SMR000260329] — higher, > 155 µM
- CCOc1ccc(N(C)S(=O)(=O)c2cc(-c3cc(C)no3)ccc2C(C)C)cc1 [N-(4-ethoxyphenyl)-N-methyl-5-(3-methyl-1,2-oxazol-5-yl)-2-propan-2-yl-benzenesulfonamide] — higher, > 155 µM
- Cc1ccc(-c2cc(C(F)F)nc(N3CCOCC3)n2)cc1 — higher, > 155 µM
- COc1ccc(C=NNC(=O)C(C=Nc2nccc(C)n2)NC(=O)c2ccccc2)cc1 (stereo not drawn) [N-[(E)-3-[(2Z)-2-[(4-methoxyphenyl)methylidene]hydrazinyl]-1-[(4-methylpyrimidin-2-yl)amino]-3-oxidanylidene-prop-1-en-2-yl]benzamide] — 1.5-fold higher, 149 µM
- CCC(C)c1ccccc1NC(=O)COC(=O)C1=NN(c2ccccc2)C(=O)CC1 (stereo not drawn) [6-oxo-1-phenyl-4,5-dihydropyridazine-3-carboxylic acid [2-(2-butan-2-ylanilino)-2-oxoethyl] ester] — higher, > 155 µM
- Cc1ccc(S(=O)(=O)NCCNc2ccc([N+](=O)[O-])cc2C(F)(F)F)cc1 [4-methyl-N-(2-{[4-nitro-2-(trifluoromethyl)phenyl]amino}ethyl)benzenesulfonamide] — higher, > 155 µM
- COC(=O)c1ccccc1NC(=S)NC(=O)C1CC1 [methyl 2-({[(cyclopropylcarbonyl)amino]carbothioyl}amino)benzoate] — higher, > 155 µM
- Cc1ccc(C)n1-n1c(C)nc2scc(-c3ccccc3)c2c1=O [MLS000564386] — higher, > 155 µM
- CCN(c1ccccc1)c1nc2nonc2nc1NCCO [2-[6-(Ethyl-phenyl-amino)-[1,2,5]oxadiazolo[3,4-b]pyrazin-5-ylamino]-ethanol] — higher, > 155 µM
- Cc1ccc(NS(=O)(=O)c2ccc3c(c2)C(=O)c2ccccc2C3=O)c(C)c1 [SMR000207645] — higher, > 155 µM
- O=C(O)Cc1sc(N=NC=CCc2ccccc2)nc1O [SMR000236709] — within 1.5-fold, 118 µM
- CCOc1ccc(N(C)S(=O)(=O)c2cc(-c3cc(C)no3)ccc2C)cc1 [SMR000630369] — higher, > 155 µM
- Cc1cc(OC(C)C)c2c(-c3ccccc3)cc(=O)oc2c1 [SMR000141385] — higher, > 155 µM
- CC(Nc1ccc([N+](=O)[O-])cc1[N+](=O)[O-])c1ccccc1 (stereo not drawn) — higher, > 155 µM
- O=C1C(Cl)=C(NCCCN2CCOCC2)C(=O)N1CCc1ccccc1 [3-chloro-4-{[3-(4-morpholinyl)propyl]amino}-1-(2-phenylethyl)-1H-pyrrole-2,5-dione] — higher, > 155 µM
- CCOC(=O)C1CCCN(C(=O)c2cnn3c(C(F)F)cc(-c4ccc(C)cc4)nc23)C1 (stereo not drawn) [1-[7-(difluoromethyl)-5-(p-tolyl)pyrazolo[1,5-a]pyrimidine-3-carbonyl]nipecotic acid ethyl ester] — higher, > 155 µM
- Cc1ccc(Nc2ccc(C(F)(F)F)cc2[N+](=O)[O-])cc1 — higher, > 155 µM
- Cc1ccccc1-n1c(SCc2cccc(F)c2)nc2[nH]ncc2c1=O [6-[(3-fluorobenzyl)thio]-5-(2-methylphenyl)-2,5-dihydro-4H-pyrazolo[3,4-d]pyrimidin-4-one] — higher, > 155 µM
- Cc1ccc(Nc2ccc(C(N)=O)cc2[N+](=O)[O-])cc1C [MLS000334544] — higher, > 155 µM
- O=C(O)c1cccc(NS(=O)(=O)c2ccc3c(c2)C(=O)c2ccccc2C3=O)c1 [3-[[9,10-bis(oxidanylidene)anthracen-2-yl]sulfonylamino]benzoic acid] — higher, > 155 µM
- Nc1ccccc1Nc1ccc([N+](=O)[O-])cc1[N+](=O)[O-] [N~1~-(2,4-dinitrophenyl)-1,2-benzenediamine] — higher, > 155 µM
- N#CC(C=Nc1ccccc1O)c1nc2ccccc2o1 (stereo not drawn) [SMR000171441] — higher, > 155 µM
- c1ccc2c(c1)CCCN2c1nc2ccccc2n2cnnc12 [4-(3,4-dihydro-2H-quinolin-1-yl)-[1,2,4]triazolo[4,3-a]quinoxaline] — higher, > 155 µM
- Cc1ccc(CC2(C)C(=O)Nc3ccc(OC(F)(F)F)cc32)cc1 (stereo not drawn) [SMR001453901] — higher, > 155 µM
- Cc1ccccc1-c1nc(C#N)c(N2CCCCC2)o1 [MLS001165046] — higher, > 155 µM
- N#Cc1c(N2CCCC2)ccc(Br)c1Cl [3-bromo-2-chloro-6-tetrahydro-1H-pyrrol-1-ylbenzonitrile] — higher, > 155 µM
- N#Cc1c(-n2cccc2C=O)sc2c1CCCC2 [2-(2-methanoylpyrrol-1-yl)-4,5,6,7-tetrahydro-1-benzothiophene-3-carbonitrile] — higher, > 155 µM
- O=C(N/N=C/c1sc(N2CCOCC2)nc1-c1ccccc1)c1ccc(O)cc1 [MLS000336683] — higher, > 155 µM
- c1cnn(-c2cncc(-n3cccn3)n2)c1 [2,6-bis(1-pyrazolyl)pyrazine] — higher, > 155 µM
- COc1ccc(CNC(=O)c2c(C)oc3c2C(=O)c2ccccc2C3=O)cc1 — higher, > 155 µM

— BindingDB's records for doi:10.7270/Q2639NCQ (The Scripps Research Institute Molecular Screening Center, 2013)
